The record followed here is ChEMBL document CHEMBL5260817, “Polyamine-based analogs and conjugates as antikinetoplastid agents” (Eur J Med Chem, 2017).

The structures appear in SMILES notation. A value given as a limit tells only on which side of the number the result lay.

Data set [1] deals with Trypanosoma brucei brucei. Nature of the data set: Antiprotozoal activity against Trypanosoma brucei brucei Lab 110 EATRO strain. The format is functional, organism-based.
The subject of data set [2] is Leishmania donovani. Nature of the data set: Antiprotozoal activity against Leishmania donovani promastigote measured after 72 hrs by LDH assay. The format is functional, organism-based.
The test system of data set [3] is Leishmania donovani. Description: Antiprotozoal activity against Leishmania donovani promastigote at 10 uM relative to control. The format is functional.
A further data set concerns Trypanosoma cruzi. Description: Antiprotozoal activity against Trypanosoma cruzi amastigotes infected in mouse Peritoneal macrophage cells assessed as growth inhibition at 1.56 uM relative to control. The format is functional.
The test system of data set [4] is Trypanosoma brucei rhodesiense. Description: Antiprotozoal activity against Trypanosoma brucei rhodesiense STIB900 strain assessed as trypanocidal activity. The format is functional, organism-based.
A short description of data set [5]: Anticancer activity against rat Myoblast cells assessed as cell growth inhibition. The format is functional, cell-based.
Data set [6] deals with Trypanosoma brucei. Nature of the data set: Antiprotozoal activity against Trypanosoma brucei infected in HepG2 cells. It is filed as functional, organism-based.
Data set [7] in a line: Inhibition of Trypanosoma brucei TryS.
Data set [8] has as its system Leishmania infantum. Nature of the data set: Antiprotozoal activity against Leishmania infantum promastigotes. The format is functional, organism-based.
The nature of data set [9]: Inhibition of Leishmania infantum TryS in presence of ATP by Malachite green staining based end-point assay.
Data set [10] can be described thus: Inhibition of Leishmania infantum recombinant N-terminal His-tag TryS in presence of ATP.
The nature of data set [11]: Inhibition of Trypanosoma brucei recombinant N-terminal His-tag TryS in presence of ATP.
A short description of data set [12]: Inhibition of Trypanosoma cruzi recombinant N-terminal His-tag TryS in presence of ATP.
The next data set relates to HL-60. Nature of the data set: Anticancer activity against human HL-60 cells assessed as cell growth inhibition by trypan blue staining based assay. It is filed as functional.
The subject of data set [13] is Trypanosoma brucei. Nature of the data set: Antiprotozoal activity against Trypanosoma brucei clone 427-221a. The format is functional, organism-based.
In a further data set the test system is Leishmania major. Nature of the data set: Antiprotozoal activity against Leishmania major amastigotes. The format is functional, organism-based.
The subject of a further data set is Leishmania amazonensis. Description: Antiprotozoal activity against Leishmania amazonensis PH8 strain […] assessed as […] at 10 ug/ml relative to control. The format is functional. The note with it: dose 10 µg/ml.
For data set [14], the system named is Leishmania donovani. Nature of the data set: Antiprotozoal activity against Leishmania donovani LV9 strain amastigotes. It is filed as functional, organism-based.
The subject of the next data set is Leishmania braziliensis. Description: Antiprotozoal activity against Leishmania braziliensis 2903 strain […] assessed as […] at 10 ug/ml relative to control. The note with it: dose 10 µg/ml. It is filed as functional.
The test system of data set [15] is Leishmania donovani. Nature of the data set: Antiprotozoal activity against Leishmania donovani PP75 strain […] assessed as […] at 10 ug/ml relative to control. The settings on record: dose 10 µg/ml. It is filed as functional.
In the next data set the test system is L6. Nature of the data set: Anticancer activity against rat L6 cells assessed as cell growth inhibition. It is filed as functional, cell-based.
Data set [16] relates to Trypanosoma brucei rhodesiense. Description: Antiprotozoal activity against Trypanosoma brucei rhodesiense STIB900 strain. The format is functional, organism-based.
Data set [17] is described as follows: Inhibition of TryR (unknown origin). The format is functional.
A short description of data set [18]: Inhibition of Trypanosoma brucei rhodesiense TryR.
Data set [19] concerns Leishmania infantum. Nature of the data set: Antiprotozoal activity against Leishmania infantum promastigotes measured after 5 days. It is filed as functional, organism-based. The settings on record: 120 h.
Data set [20] relates to Leishmania infantum. Description: Antiprotozoal activity against Leishmania infantum amastigotes measured after 5 days. It is filed as functional, organism-based. The note with it: 120 h.
Data set [21] in a line: Inhibition of Trypanosoma brucei MetRS in presence of ATP.
Data set [22] in a line: Anticancer activity against human CRL-8155 cells assessed as cell growth inhibition. It is filed as functional, cell-based. The settings on record: CRL8155.
Data set [23] concerns Trypanosoma brucei. Description: Trypanocidal activity against Trypanosoma brucei trypomastigotes. It is filed as functional, organism-based.
A short description of data set [24]: Half life in BALB/c mouse plasma infected with Trypanosoma brucei 427 strain at 25 mg/kg/day, sc measured after 3 days. It is filed as ADME, organism-based. The settings on record: time 3 day.
A short description of data set [25]: Inhibition of Trypanosoma brucei His tagged TryS in presence of ATP by LDH/PK assay.
The nature of data set [26]: Inhibition of Leishmania infantum His tagged TryS in presence of ATP by LDH/PK assay.
A further data set addresses Trypanothione synthetase (Crithidia fasciculata, UniProt O60993). Nature of the data set: Inhibition of Crithidia fasciculata His tagged TryS in presence of ATP by LDH/PK assay.
For data set [27], the system named is Leishmania infantum. Description: Antiprotozoal activity against Leishmania infantum. The format is functional, organism-based.
Data set [28] deals with Trypanosoma brucei. Nature of the data set: Trypanocidal activity against Trypanosoma brucei. It is filed as functional, organism-based.
The target in a further data set is Trypanothione reductase (Trypanosoma brucei brucei, UniProt P39051). Nature of the data set: Inhibition of Trypanosoma brucei TryR.
Trypanothione reductase, sequence (P39051 whole entry): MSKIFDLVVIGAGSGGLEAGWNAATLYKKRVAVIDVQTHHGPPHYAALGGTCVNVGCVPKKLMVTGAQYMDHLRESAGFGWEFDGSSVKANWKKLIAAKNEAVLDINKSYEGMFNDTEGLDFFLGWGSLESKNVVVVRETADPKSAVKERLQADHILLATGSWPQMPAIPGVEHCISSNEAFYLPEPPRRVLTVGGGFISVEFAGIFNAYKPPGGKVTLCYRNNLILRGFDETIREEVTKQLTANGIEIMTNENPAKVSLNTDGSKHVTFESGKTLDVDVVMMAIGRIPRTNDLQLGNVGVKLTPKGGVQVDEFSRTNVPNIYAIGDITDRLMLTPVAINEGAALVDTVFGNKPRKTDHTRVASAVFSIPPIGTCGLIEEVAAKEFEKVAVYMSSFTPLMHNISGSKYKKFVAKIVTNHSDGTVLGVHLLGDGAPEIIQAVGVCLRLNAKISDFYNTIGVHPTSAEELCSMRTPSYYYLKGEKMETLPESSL

Trypanothione synthetase, sequence (O60993 whole entry): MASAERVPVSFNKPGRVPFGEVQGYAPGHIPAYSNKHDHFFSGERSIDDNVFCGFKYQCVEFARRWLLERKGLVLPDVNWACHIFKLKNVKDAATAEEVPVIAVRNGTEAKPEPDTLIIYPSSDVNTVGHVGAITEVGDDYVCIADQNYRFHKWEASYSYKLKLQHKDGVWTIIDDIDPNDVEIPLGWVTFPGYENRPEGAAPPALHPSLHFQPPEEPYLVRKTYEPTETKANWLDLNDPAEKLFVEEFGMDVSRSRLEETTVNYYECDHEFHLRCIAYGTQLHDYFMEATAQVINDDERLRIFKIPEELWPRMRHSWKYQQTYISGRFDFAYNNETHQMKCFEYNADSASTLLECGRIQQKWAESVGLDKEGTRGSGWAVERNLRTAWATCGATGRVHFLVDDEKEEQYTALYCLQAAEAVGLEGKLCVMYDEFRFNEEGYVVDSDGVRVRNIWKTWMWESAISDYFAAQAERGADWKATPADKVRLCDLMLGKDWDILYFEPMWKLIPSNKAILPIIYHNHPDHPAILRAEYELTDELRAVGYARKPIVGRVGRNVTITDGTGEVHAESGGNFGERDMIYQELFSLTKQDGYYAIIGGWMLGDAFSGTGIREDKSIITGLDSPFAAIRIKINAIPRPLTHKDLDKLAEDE

Broadly, the IC50 is the midpoint of a concentration-inhibition curve. On to `N=C(NC1CCCCCC1)c1ccc(N2CCN(c3ccc(C(=N)NC4CCCCCC4)cc3)CC2)cc1`, for which the concentration for half-maximal inhibition (IC50) is 0.018 µM in data set [1] and 4.76 µM in the data set with Leishmania donovani [2].

For orientation: inhibition means the percentage by which the read-out fell short of the control. `COc1ccc2nc3cc(Cl)ccc3c(NCCCCCCCCNc3c4ccc(Cl)cc4nc4ccc(OC)cc34)c2c1` showed an inhibition at 10 µM in the data set on Leishmania donovani [3] of 99%. The inhibition at 1.56 µM with Trypanosoma cruzi was found to be 70%.

Take `CN(C)CCCNc1cc(Cl)ccc1Sc1ccc(C(F)(F)F)cc1`: the IC50 in [4] is 1.2 µM; in data set [5], 9.8 µM.

`COc1ccc(CNCCNCc2ccc(OC)cc2)cc1` registered an IC50 in the data set on Trypanosoma brucei [6] of at most 10 µM.

Take `CNCCNC(=O)CN1C(=O)Cc2c([nH]c3ccc(C(F)(F)F)cc23)-c2ccccc21`: the values for the IC50 (in data set [7]; in the data set with Leishmania infantum [8]; in [9]) were 75 µM, 112 µM and 0.35 µM, respectively.

For `CC(C)c1ccc(CNCCCCCCCCCCNCc2ccc(C(C)C)cc2)cc1`, the IC50 in data set [10], in [11] and in data set [12] was 30 µM each time.

For `COc1ccc2nc3cc(Cl)ccc3c(NCCCN(C)CCCNc3c4ccc(Cl)cc4nc4ccc(OC)cc34)c2c1`, the IC50 with HL-60 was 1 µM; in the data set with Trypanosoma brucei [13] it was 0.001 µM; with Leishmania major it was 6 µM.

Take `CCN(CC)CCCCCCNc1cc(OC)cc2c(C)ccnc12` [SITAMAQUINE]: the Activity with Leishmania amazonensis, with Leishmania braziliensis and in the data set on Leishmania donovani [15] was 80% each time. The IC50 in the data set on Leishmania donovani [14] was 4 µM.

In the case of `C[N+](C)(CCCNc1cc(Cl)ccc1Sc1ccccc1)Cc1ccc([N+](=O)[O-])o1`, the 50% inhibitory concentration (IC50) is over 170 µM with L6, 0.6 µM in [16] and 9 µM in [17].

On to `C[N+](C)(CCCNc1cc(Cl)ccc1Sc1ccccc1)Cc1ccc(Cl)c(Cl)c1`, for which inhibition in data set [18] was half-maximal at 5 µM (IC50).

For the molecule `O=C1c2cccc3cccc(c23)C(=O)N1CCCNCCCCNCCCN1C(=O)c2cccc3cccc(c23)C1=O`, the IC50 in the data set on Leishmania infantum [19] and in the data set on Leishmania infantum [20] was 1 µM throughout.

One may read the half-life as how long it takes for the measured level to halve. A low value points to fast loss. Regarding `Oc1cc(NCCCNCc2cc(Cl)cc(Cl)c2)nc2ccccc12`, the IC50 is 0.008 µM in [21], over 20 µM in data set [22] and 0.004 µM in the data set on Trypanosoma brucei [23]. The molecule further had a half-life in data set [24] of 1 h.

Consider `CNCCNC(=O)CN1C(=O)Cc2c([nH]c3ccc(Br)cc23)-c2ccc(Cl)cc21`, for which the IC50 turned out to be 59 µM in data set [25], 0.15 µM in data set [26], 0.03 µM on Trypanothione synthetase and 12.6 µM in the data set on Leishmania infantum [27].

Regarding `Clc1ccc2c(c1)N(CCCN1CCN(CCCc3ccccc3)CC1)c1ccccc1S2`, the IC50 is 0.77 µM with Trypanosoma brucei [28] and 0.75 µM against Trypanothione reductase.
